Experiments:
[1] = tested on: arrested HCT-116 cells; experiment: Arrested cell assay, arrested HCT-116 tumor cells; type: cell-based; settings: Homo sapiens, serum-starved arrested cells, 72 hours, read-out: Arrested cell assay HCT IC50
Description: (§1) Cyclin-dependent kinase (Cdk) activity is required to promote the progression of cells through distinct phases of the cell division cycle. The proliferation of normal, non-transformed, cells in culture requires the presence of growth factors, the removal of which, through serum deprivation, leads to a loss of Cdk activity and consequent exit from the cell cycle as cells enter the quiescent phase, G0.
HCT-116 cells were plated in triplicate for each compound concentration to be tested in RPMI 1640 media containing 10% fetal calf serum at a density of either 200 or 2,000 cells per well in 24 well dishes, and incubated overnight at 37° C., 5% CO2. The media from the plate containing 2,000 cells per well was removed, cells were washed once with serum free media and 1 ml of serum free media was placed on cells. The plates containing cells both in the presence and absence of serum were incubated for 6 additional days.
(§2) The cells are incubated in the presence of the compounds for 72 hours (3 days) at 37° C. […] Cycling and arrested HCT-116 cells as well as cycling IMR90 cells were exposed to a panel of 6 doses ranging from 5 to 250 nM. For arrested normal cells, the range of doses was increased to 50 nM to 25 μM, to compensate for the expected decrease in activity.
(§3) The effect of 72 hours of compound exposure on cellular viability was assessed in the Calcein AM assay. Calcein AM is a fluorescent substrate of intracellular esterases that are only active in viable cells. Cleavage of the substrate thus provides a measure of viability, which is proportional to cell number.
(§4) A Calcein AM stock solution was prepared by dissolving a 50 μg aliquot (Molecular Probes catalogue # C3100) in 50 μl DMSO. The tube was incubated at room temperature for approximately 10 minutes to ensure that the Calcein had dissolved completely. The calcein was diluted into 10 ml PBS to prepare the final solution, which was protected from light.
(§5) The media was aspirated off the cells, which were then washed twice with 1 ml PBS to remove the PBS completely from cells by aspiration. 0.5 ml of the Calcein/PBS solution was transferred by pipette into each well. The plates were incubated at 37° C. for 75 minutes (protected from light) and read on a fluorescent plate reader (excitation 485/20 and emission 530/25).

[2] = tested on: HCT-116 cells; experiment: BrdU incorporation assay; type: cell-based; settings: Homo sapiens, read-out: Brd U, concentration that inhibits BrdU incorporation by 50%
Description: This method measured the percentage of cells that incorporated the nucleotide analog, BrdU, into newly synthesized DNA as cells progressed through the S phase of the cell cycle. The inhibition of BrdU incorporation was used as a measure of a Cdk inhibitor's effect on S phase progression and DNA replication.
3 sets of HCT-116 cells (100,000 cells/set) were plated in T25 flasks and incubated with a test compound as above. Analysis was done at 24, 48, and 72 hours. BrdU was added to each T-25 flask from a stock of 10 mg/ml to a final concentration of 10 μM and the cells were incubated for an additional 16-18 hours at 37° C. The cells were then prepared for flow cytometric analysis according to manufacturer's protocol (BrdU Flow kit, BD-Pharmingen catalogue #2354KK) as follows:
Cells were harvested (adherent and floating) from the T25 flasks directly into Falcon 12×75 flow cytometric tubes as above followed by fixation and permeabilization with the addition of 100 μl of Cytofix/Cytoperm buffer (30 minutes, room temperature). The cells were then washed with 1 ml of Perm Wash buffer and the cell pellets were resuspended in 100 μl Cytoperm Plus buffer and incubated on ice for 10 minutes. The cells were then washed again with 1 ml of Perm Wash buffer and the fixation was repeated in 100 μl of Cytofix/Cyto Perm buffer for 10 minutes at room temperature. The cells were then washed with 1 ml of Perm Wash buffer. The cells were next treated for one hour at 37° C. with 100 μl DNase to expose incorporated BrdU followed by another wash step with 1 ml of Perm Wash buffer. […] Cells were protected from light and incubated at room temperature for 20-30 minutes. Following the incubation, the cells were washed with 1 ml of Perm Wash buffer, resuspended in 300 μl of 2% FBS in PBS, and analyzed on the flow cytometer. Results are presented in Table 2 as the concentration of compound (μM) that inhibits of BrdU incorporation by 50%.

[3] = tested on: HCT-116 cells; experiment: Calcein AM viability assay, HCT-116; type: cell-based; settings: Homo sapiens
Description: The potency of Cdk inhibitors, as measured by loss of cellular viability, was determined with the Calcein AM assay (Molecular Probes). Calcein AM is a substrate of intracellular esterases, which is cleaved only in viable cells to generate a fluorescent product that can be quantified with a fluorescent plate reader. The fluorescent signal is proportional to the number of viable cells, and thus loss of signal in response to the exposure of cells to Cdk inhibitors correlates with a loss of viability. This assay can distinguish cell cycle arrest, in which cells may still by viable, from loss of viability and is thus well suited for the evaluation of Cdk inhibitors. A compound that is a potent cytotoxic, may cause significant loss of cell viability in such assay.
Cellular IC50's were determined in the human colorectal carcinoma cell line, HCT-116, and the normal human fibroblast, IMR90. Protein adjusted IC50's were also determined in HCT-116.
HCT-116 or IMR90 cells were recovered from sub-confluent plates by trypsinization and 1,000 or 4,000 cells, respectively, were plated in 24-well dishes and incubated overnight at 37° C., 5% CO2. HCT-116 cells were cultured in RPMI-1640, 10% FCS, and IMR90 cells were cultured in Minimum Essential Medium-alpha, 10% FCS. After overnight incubation to allow adherence, the media was aspirated from each well and replaced with media containing a test compound at a concentration from 0 to 250 nM, spanning a total of 7 doses. The plates were returned to the incubator and cultured for an additional 72 hours (3 days). […] After 72-hours incubation with the test compound, the cells were washed twice with 1×PBS, taking special care to remove all residual buffer.
A 5 μM Calcein AM solution was prepared by dissolving a […] aliquot of Calcein (Molecular Probes catalog # C3100) in 50 μl DMSO. After the Calcein had completely dissolved (10 minutes at room temperature), it was diluted into 10 ml PBS. Calcein/PBS (0.5 ml) was added to each well. The plates were incubated for 75 minutes at 37° C. (protected from light) and the fluorescent signal was read on a fluorescent plate reader (excitation 485/20 and emission 530/25).

[4] = tested on: arrested IMR90 cells; experiment: Arrested cell assay, arrested IMR90 normal cells; type: cell-based; settings: Homo sapiens, IMR-90; serum-starved arrested cells, 72 hours; read-out: Arrested cell assay IMR90 IC50
Description: as §1
IMR90 cells were plated in triplicate for each compound concentration to be tested in MEM-A media containing 10% fetal calf serum at a density of either 2,000 or 20,000 cells per well in 24-well dishes and incubated overnight at 37° C., 5% CO2. The media was removed from the 20,000 cell-per-well dish, cells were washed once with serum-free media, and serum-free media was placed on cells. The plates containing cells both in the presence and absence of serum were incubated for 3 additional days.
as §2, §3, §4, §5

[5] = Cytotoxicity in PBMCs (MTS assay); type: cell-based, human; settings: human
Description: (§6) The activity of the certain compounds of the invention was evaluated in peripheral blood mononuclear cells (PBMCs) infected with the low passage, clinical isolate HIV-1 ROJO to generate a measure of the efficacy of these compounds in acutely infected cells. The use of these normal human cells allows an estimate of the therapeutic index of these compounds to be made. Fresh PBMCs from two donors were pooled and stimulated with PHA-P for 48-72 hours. The cells were then cultured in the presence of IL-2 to maintain the cell division initiated by the mitogenic signal. The virus was added at a multiplicity of infection of 0.1. The cells were cultured for 7 days post infection prior to the evaluation of efficacy. Viral replication was measured by the level of reverse transcriptase activity in the supernatant and cytotoxicity was measured with the MTS assay.

[6] = tested on: HIV-1 ROJO; experiment: Antiviral activity in PBMCs infected with HIV-1 ROJO (reverse transcriptase); type: cell-based; settings: for IC50: Human immunodeficiency virus 1, PBMC, 168 h, read-out: IC50: 50% inhibition of virus replication measured by reverse transcriptase levels in the supernatant, HIV-1 ROJO, 7 days post infection
Description: as §6

[7] = target: T1, Cdk2/cyclin E (Homo sapiens, UniProt P24941); experiment: Biochemical kinase assay Cdk2/cyclin E; settings: Table 6
T1 construct: made in house; host or cells: Sf9 insect cells
In short: (§7)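 Sf9-expressed Cdk/cyclin heterodimers phosphorylate GST-Rb (residues 379–928, 40 μg) with 50 μM ATP plus [γ-33P]ATP, pH 7.5, 10% DMSO, 15 min at 30 °C. Compounds 1 nM–10 μM. 33P captured on glutathione-sepharose and scintillation-counted; activity relative to DMSO control after EDTA-background subtraction.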

[8] = target: T2, Cdk4/cyclin D1 (Homo sapiens, UniProt P11802); experiment: Biochemical kinase assay Cdk4/cyclin D1; settings: Table 6
T2 construct: made in house; host or cells: Sf9 insect cells
In short: as §7

[9] = target: T3, Cdc2/cyclin B (Homo sapiens, UniProt P06493); experiment: Biochemical kinase assay Cdc2/cyclin B; settings: Table 6
T3 construct: purchased
In short: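 Radiometric TCA-precipitation assay measuring [γ-32P]ATP incorporation into Histone H1 (20 μg); 50 μM ATP, 10% DMSO, Tris pH 7.5 with MgCl2 and DTT. Compounds at 1 nM to 10 μM; reaction 20 min at 30 °C, stopped with EDTA/ATP. Activity relative to DMSO control after subtracting 50 mM EDTA background.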

[10] = HCT-116, 72 h, Calcein AM, 72 hours, read-out: HCT-116 IC50 Viability
[11] = HCT-116, non-protein adjusted, Table 6, read-out: HCT-116 viability IC50
[12] = HCT-116, plus 1 mg/ml alpha acidic glycoprotein and 45 mg/ml human serum albumin, read-out: HCT-116 IC50 Protein adjusted

T3 sequence (P06493 whole entry, species assumed): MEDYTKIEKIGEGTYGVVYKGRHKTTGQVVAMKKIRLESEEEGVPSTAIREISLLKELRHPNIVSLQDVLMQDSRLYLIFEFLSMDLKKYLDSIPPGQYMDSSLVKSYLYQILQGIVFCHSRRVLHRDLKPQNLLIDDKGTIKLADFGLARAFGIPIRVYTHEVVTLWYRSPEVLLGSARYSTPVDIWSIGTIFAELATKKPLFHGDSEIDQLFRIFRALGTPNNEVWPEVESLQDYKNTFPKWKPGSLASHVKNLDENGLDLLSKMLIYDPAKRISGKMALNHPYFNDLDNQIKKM
T3 sequence (P14635 whole entry partner, species assumed): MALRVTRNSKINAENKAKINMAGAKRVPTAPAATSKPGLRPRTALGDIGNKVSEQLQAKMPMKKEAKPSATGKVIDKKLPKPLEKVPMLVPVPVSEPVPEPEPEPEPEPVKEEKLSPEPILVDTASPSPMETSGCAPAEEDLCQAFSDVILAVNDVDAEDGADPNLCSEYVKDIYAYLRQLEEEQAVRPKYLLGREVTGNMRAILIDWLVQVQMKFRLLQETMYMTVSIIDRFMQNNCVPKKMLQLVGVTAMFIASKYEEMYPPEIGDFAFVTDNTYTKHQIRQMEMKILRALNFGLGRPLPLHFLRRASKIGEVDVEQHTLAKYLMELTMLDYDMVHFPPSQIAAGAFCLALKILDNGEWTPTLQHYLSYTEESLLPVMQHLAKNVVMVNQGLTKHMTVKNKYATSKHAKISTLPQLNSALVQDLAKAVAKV
T2 sequence (P11802 whole entry, species assumed): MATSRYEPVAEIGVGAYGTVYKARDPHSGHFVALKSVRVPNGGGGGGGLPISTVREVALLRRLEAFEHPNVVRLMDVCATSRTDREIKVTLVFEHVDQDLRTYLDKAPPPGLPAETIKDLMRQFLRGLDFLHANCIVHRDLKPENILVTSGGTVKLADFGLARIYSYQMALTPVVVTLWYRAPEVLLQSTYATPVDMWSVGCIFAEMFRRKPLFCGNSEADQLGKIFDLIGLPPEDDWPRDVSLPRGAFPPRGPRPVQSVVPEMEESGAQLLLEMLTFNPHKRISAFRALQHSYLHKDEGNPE
T2 sequence (P24385 whole entry partner, species assumed): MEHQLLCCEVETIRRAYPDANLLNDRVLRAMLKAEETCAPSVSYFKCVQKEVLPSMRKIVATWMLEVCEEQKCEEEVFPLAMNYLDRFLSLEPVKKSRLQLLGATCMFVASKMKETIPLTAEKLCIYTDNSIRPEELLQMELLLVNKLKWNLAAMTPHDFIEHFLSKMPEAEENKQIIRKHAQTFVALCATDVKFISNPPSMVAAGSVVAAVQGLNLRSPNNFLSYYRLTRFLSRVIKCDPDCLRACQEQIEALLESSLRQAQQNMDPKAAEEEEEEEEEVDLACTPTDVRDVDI

| SMILES | IC50 [1] [nM] | IC50 ([2]; HCT-116, 24 h) [nM] | IC50 [3, 10] [nM] | IC50 [4] [nM] | CC50 at 7 days [5] [nM] | TI: TC50/IC50 [6] | IC50 [6] [nM] | IC50 [7] [nM] | IC50 [3, 11] [nM] | IC50 ([2]; HCT-116, 48 h) [nM] | IC50 [3, 12] [nM] | IC50 [8] [nM] | IC50 [9] [nM] |
| --- | --- | --- | --- | --- | --- | --- | --- | --- | --- | --- | --- | --- | --- |
| O=C(Nc1cccc2c1C(=O)c1c-2n[nH]c1-c1ccc(OCCN2CCCC2)cc1)NN1CCOCC1 [Compound I] | < 100 | < 10 | < 100 | > 1000 |  |  |  |  |  |  |  |  |  |
| CC(C)c1nn(-c2c(Cl)cc(Cl)cc2Cl)c2nc(Cc3ccc(CNC(CO)CO)n3C)[nH]c(=O)c12.Cl [Compound C4] |  |  |  |  | < 100 | >1 | < 100 | < 10 | < 100 |  |  |  |  |
| O=C(Nc1cccc2c1C(=O)c1c-2n[nH]c1-c1ccc(OCCN(CCO)CCO)cc1)NN1CCOCC1 [H] | < 100 |  |  | > 1000 |  |  |  |  |  | < 1000 | < 1000 |  |  |
| CN1CCN(NC(=O)Nc2cccc3c2C(=O)c2c-3n[nH]c2-c2ccc(OCCN3CC[C@H](O)C3)cc2)CC1 [O] | < 100 | < 100 |  | > 100 |  |  |  |  |  |  | < 1000 |  |  |
| CC(C)c1nn(-c2c(Cl)cc(Cl)cc2Cl)c2nc(Cc3ccc(OCCO)cc3)[nH]c(=O)c12 [Compound A61] |  |  |  |  | < 100 | >10 | < 10 | < 100 |  |  |  | < 1000 | < 100 |
| CC(C)c1nn(-c2c(Cl)cccc2Cl)c2nc(Cc3ccc(OCCN4CCOCC4)c(O)c3)[nH]c(=O)c12 [Compound A32] |  |  |  |  | < 100 | >10 | < 10 | < 100 | < 100 |  |  | < 100 | < 1000 |
| CCCN(CCOc1ccc(-c2[nH]nc3c2C(=O)c2c(NC(=O)NN4CCOCC4)cccc2-3)cc1)CC1CC1 [G] | < 100 | < 10 | < 100 | > 100 |  |  |  |  |  |  |  |  |  |
| CN1CCN(NC(=O)Nc2cccc3c2C(=O)c2c-3n[nH]c2-c2ccc(OCCN3CCC[C@H]3CO)cc2)CC1 [Compound M] | < 100 |  | < 100 | > 1000 |  |  |  |  |  | < 100 |  |  |  |
| CC(C)N1CCN(Cc2cc(-c3[nH]nc4c3C(=O)c3c(NC(=O)NN5CCOCC5)cccc3-4)ccc2O)CC1 [K] | < 10 | < 100 | < 100 | > 1000 |  |  |  |  |  | < 100 |  |  |  |
| CC(C)c1nn(-c2c(Cl)cc(Cl)cc2Cl)c2nc(Cc3ccc(OCC(C)(C)O)cc3)[nH]c(=O)c12 [Compound A64] |  |  |  |  | < 100 | >10 | < 10 | < 100 | < 100 |  |  | < 1000 | < 100 |
| CN1CCN(NC(=O)Nc2cccc3c2C(=O)c2c-3n[nH]c2-c2ccc(OCCN3CCOCC3)cc2)CC1 [Q] | < 100 |  |  | > 100 |  |  |  |  |  | < 100 |  |  |  |
| CC(C)c1nn(-c2c(Cl)cccc2Cl)c2nc(Cc3ccc(CN4CCCC4)c(O)c3)[nH]c(=O)c12.Cl [Compound C3] |  |  |  |  | < 100 | >10 | < 10 | < 100 | < 100 |  |  |  |  |

From patent US7605175B2, “Inhibitors of cyclin-dependent kinases, compositions and uses related thereto” (GPC Biotech AG, priority 2001, dated 2009)
